In patent US5760036A, “Aminediol protease inhibitors” (E. R. Squibb & Sons, Inc., priority 1995, dated 1998):

Each compound was assayed against T1, HIV protease (Human immunodeficiency virus type 1 group M subtype B, UniProt P04585) (assay: HIV Protease Assay). Conditions: 10 μM inhibitor, 4% DMSO, 450 μM substrate, pH 5.5, 30 minutes at 37° C., RP-HPLC.
T1 construct: and purified protease
Type: biochemical
Summary of the method: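 Purified protease cleaved 450 μM octapeptide substrate in 50 mM sodium acetate pH 5.5 with 100 μg/ml BSA for 30 minutes at 37° C; product analyzed by reverse-phase HPLC at UV220 after H3PO4 quench. Inhibitors tested at final 10 μM with 4% DMSO.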

Row | Structure (SMILES) | HIV Protease % Inhibition at 10 μM [%]
1 | CC(C)(C)OC(=O)N[C@@H](Cc1ccccc1)[C@H](O)CNC[C@@H](O)[C@H](Cc1ccccc1)NC(=O)C1NC(=O)OC1(C)C (single isomer, unassigned; isomer a) [Compound 239, [1S-[1R*,2S*(2S*,3R*)]]-[3-[[3-[[(5,5-Dimethyl-2-oxo-4-oxazolidinyl)carbonyl]amino]-2-hydroxy-4-phenylbutyl]amino]-2-hydroxy-1-(phenylmethyl)propyl]carbamic acid, 1,1-dimethylethyl ester, isomer A] | 37
2 | CC(C)(C)OC(=O)N[C@@H](Cc1ccccc1)[C@H](O)CNC[C@@H](O)[C@H](Cc1ccccc1)NC(=O)C1NC(=O)CC1(C)C (single isomer, unassigned) [Compound 266, [1S-[1R*,2S*(2S*,3R*)]]-[3-[[3-[[(3,3-Dimethyl-5-oxo-2-pyrrolidinyl)carbonyl]amino]-2-hydroxy-4-phenylbutyl]amino]-2-hydroxy-1-(phenylmethyl)propyl]carbamic acid, 1,1-dimethylethyl ester] | 69

Same assay, conditions: pH 5.5, 10 μM inhibitor, 4% DMSO, 450 μM substrate, pH 5.5, 30 minutes at 37° C., RP-HPLC; read-out: HIV Protease % Inhibition at 10 μM

Row | Structure (SMILES) | inhibition at 10 µM [%]
3 | CON=C(C(=O)N[C@@H](Cc1ccccc1)[C@H](O)CNC[C@@H](O)[C@H](Cc1ccccc1)NC(=O)OC(C)(C)C)C(C)(C)C [Compound 296, [1S-[1R*,2S*(2S*,3R*)]]-[2-Hydroxy-3-[[2-hydroxy-3-[[2-(methoxyimino)-3,3-dimethyl-1-oxobutyl]amino]-4-phenylbutyl]amino]-1-(phenylmethyl)propyl]carbamic acid, 1,1-dimethylethyl ester] | 37
4 | CCc1ccccc1CC(NC(=O)OC(C)(C)C)C(O)CNCC(O)C(Cc1ccccc1)NC(=O)OC(C)(C)C (stereo not shown) [Compound 371] | 98
5 | CN(C(=O)NC(C)(C)C)[C@@H](Cc1ccccc1)[C@H](O)CNC[C@@H](O)[C@H](Cc1ccccc1)NC(=O)OC(C)(C)C [Compound 136, [1S-[1R*,2S*(2S*,3R*)]]-[3-[[3-[[[(1,1-Dimethylethyl)amino]carbonyl]methylamino]-2-hydroxy-4-phenylbutyl]amino]-2-hydroxy-1-(phenylmethyl))propyl]carbamic acid, 1,1-dimethylethyl ester] | 73
6 | CNC(=O)OC(C(=O)N[C@@H](Cc1ccccc1)[C@H](O)CNC[C@@H](O)[C@H](Cc1ccccc1)NC(=O)OC(C)(C)C)C(C)(C)C (stereo partly drawn) [Compound 287, [1S-[1R*,2S*(2S*,3R*)]]-[3-[[3-[[3,3-Dimethyl-2-[[(methylamino)carbonyl]oxy]-1-oxobutyl]amino]-2-hydroxy-4-phenylbutyl]amino]-2-hydroxy-1-(phenylmethyl)propyl]-carbamic acid, 1,1-dimethylethyl ester] | 89
7 | CC(C)(C)OC(=O)N1CCC[C@H]1[C@H](O)CNC[C@H](O)[C@@H]1CCCN1C(=O)OC(C)(C)C [Compound 8, [S-(R*,R*)]-2-[2-[[[S-(R*,S*)]-2-[1-[(1,1-Dimethylethoxy)carbonyl]-pyrrolidinyl]-2-hydroxyethyl]amino]-hydroxyethyl]-1-pyrrolidine-carboxylic acid, (1,1-dimethylethyl) ester] | 2
8 | CC(C)(C)OC(=O)N[C@@H](Cc1ccccc1)[C@H](O)CNC[C@@H](O)[C@H](Cc1ccccc1)NS(=O)(=O)C(C)(C)C [Compound 183, [1S-[1R*,2S*(2S*,3R*)]]-[3-[[3-[[(2,2-Dimethylethyl)sulfonyl]amino]-2-hydroxy-4-phenylbutyl]amino]-2-hydroxy-1-(phenylmethyl)proyl]carbamic acid, 1,1-dimethylethyl ester] | 35
9 | CC(C)(C)OC(=O)N[C@@H](Cc1ccccc1)[C@H](O)CNC[C@@H](O)[C@@H](Cc1ccccc1)NC(=O)OC(C)(C)C [Compound 26i, [1R-[1R*,2R*(2R*,3S*)]]-3-[[3-[[(1,1-Dimethylethoxy)carbonyl]amino]-2-hydroxy-4-phenylbutyl]amino]-2-hydroxy-1-(phenylmethyl)propyl]carbamic acid, 1,1-dimethylethyl ester] | 57
10 | CC(C)[C@@H](NC(=O)NCc1nc2ccccc2[nH]1)C(=O)N[C@@H](Cc1ccccc1)[C@H](O)CNC[C@@H](O)[C@H](Cc1ccccc1)NC(=O)OC(C)(C)C (relative stereo) [Compound 274, [1S*,2R*(2R*,3S*)]-N^2-[[(1H-Benzimidazol-2-ylmethyl)amino]carbonyl]-N-[3-[[3-[[(1,1-dimethylethoxy)carbonyl]amino]-2-hydroxy-4-phenylbutyl]amino]-2-hydroxy-1-(phenylmethyl)propyl]-D-valinamide] | 99
11 | CC(C)(C)OC(=O)N1Cc2ccccc2C[C@H]1[C@@H](O)CNC[C@H](O)[C@@H]1Cc2ccccc2CN1C(=O)OC(C)(C)C [Compound 10, [S-(R*,R*)]-3,3'-[Iminobis(1-hydroxy-2,1-ethanediyl)]-bis[2(1H)-iso-quinolinecarboxylic acid], bis(1,1-dimethylethyl) ester] | 1
12 | CC(C)(C)OC(=O)N[C@@H](Cc1ccccc1)[C@H](O)CNC[C@@H](O)[C@H](Cc1ccccc1)NC(=O)[C@H](CCCCN)NC(=O)OCc1ccccc1 [Compound 89, [S-[1R*,2S*(2S*,3R*)[[-N-[3-[[3-[[(1,1-Dimethylethoxy)carbonyl]amino]-2-hydroxy-4-phenylbutyl]amino]-2-hydroxy-1-(phenylmethyl)-propyl]-N2-[(phenylmethoxy)carbonyl]-L-lysinamide] | 23
13 | CC(C)(C)OC(=O)N[C@@H](Cc1ccccc1)[C@H](O)CNCC(C)(O)[C@H](Cc1ccccc1)NC(=O)OC(C)(C)C (stereo partly drawn) [Compound 192, [1S-[1R*,2S*(3R*)]]-[3-[[3-[[(1,1-Dimethylethoxy)carbonyl]amino]-2-hydroxy-2-methyl-4-phenylbutyl]amino]-2-hydroxy-1-(phenylmethyl)propyl]amino]carbamic acid, 1,1-dimethylethyl ester] | 85
14 | CC(C)(C)OC(=O)N[C@@H](Cc1ccccc1)[C@H](O)CNC[C@@H](O)[C@H](Cc1ccccc1)NC(=O)c1ccc2ccccc2n1 [Compound 65, [1S-[1R*,2S*(2S*,3R*)]]-[2-Hydroxy-3-[[2-hydroxy-4-phenyl-3-[(2-quinolinylcarbonyl)-amino]butyl]amino]-1-(phenylmethyl)propyl]carbamic acid, 1,1-dimethylethyl ester] | 11
15 | CC(C)(C)OC(=O)N[C@@H](Cc1ccccc1)[C@H](O)CNC[C@@H](O)[C@H](Cc1ccccc1)NC(=O)OC(C)(CO)CO [Compound 251, [R-(R*,S*)]-[Iminobis[2-hydroxy-1-(phenylmethyl)-3,1-propanediyl)]biscarbamic acid, 1,1-bis(hydroxymethyl)ethyl 1,1-dimethylethyl ester] | 98
16 | COC(=O)N[C@@H](C(=O)N[C@@H](Cc1ccccc1)[C@H](O)CNC[C@@H](O)[C@H](Cc1ccccc1)NC(=O)OC(C)(C)C)C(C)(C)C (relative stereo) [Compound 340, [1S*,2R*(2R*,3S*)]-N-[3-[[3-[[(1,1-Dimethylethoxy)carbonyl]amino]-2-hydroxy-4-phenylbutyl]amino]-2-hydroxy-1-(phenylmethyl)propyl]-N^2-(2-methoxycarbonyl)-3-methyl-D-valinamide] | 56
17 | CC(C)C[C@H](NC(=O)OC(C)(C)C)C(O)CN(Cc1ccccc1)CC(O)[C@H](CC(C)C)NC(=O)OC(C)(C)C (stereo partly drawn) [Compound 196, (3S,3S')-[[(Phenylmethyl)nitrilo]-bis(2-hydroxy-5-methyl-3,1-hexandiyl)]-biscarbamic acid, bis(1,1-dimethylethyl)ester] | 6
18 | CC(C)(C)OC(=O)N[C@@H](Cc1ccccc1)[C@H](O)CNC[C@@H](O)[C@H](Cc1ccc(OCCN2CCOCC2=O)cc1)NC(=O)OC(C)(C)C [Compound 380, [1S-[1R*, 2S*(2S*, 3R*)]]-[3-[[3-[[(1,1-Dimethylethoxy)carbonyl]amino]-2-hydroxy-4-[4-[2-(3-oxo-4-morpholinyl)ethoxy]phenyl]-butyl]amino]-2-hydroxy-1-(phenylmethyl)propyl]-carbamic acid, 1,1-dimethylethyl ester] | 97
19 | CC(C)(C)OC(=O)N[C@@H](Cc1ccccc1)[C@H](O)CNC[C@@H](O)[C@H](Cc1ccccc1)NC(=O)OCc1nc(-c2ccccc2)c[nH]1 [Compound 253, [R-(R*,S*)]-[Iminobis[2-hydroxy-1-(phenylmethyl)-3,1-propanediyl)]biscarbamic acid, 1,1-dimethylethyl(4-phenyl-1H-imidazol-2-yl)methyl ester] | 85
20 | CC(C)(C)OC(=O)N[C@@H](Cc1ccccc1)[C@H](O)CNC[C@@H](O)[C@H](Cc1ccccc1)NC(=O)C(N)C(F)(F)F (stereo partly drawn) [Compound 329, [1S-[1R*,2S*(2S*,3R*)]]-[3-[[3-[[(1-Amino-2,2,2-trifluoroethyl)carbonyl]amino]-2-hydroxy-4-phenylbutyl]amino]-2-hydroxy-1-(phenylmethyl)propyl]carbamic acid, 1,1-dimethylethyl ester] | 84

Same assay, conditions: pH 5.5, read-out: HIV Protease % Inhibition at 10 μM

Row | Structure (SMILES) | inhibition at 10 µM [%]
21 | CC(C)(C)COC(=O)N[C@@H](Cc1ccccc1)[C@H](O)CNC[C@@H](O)[C@H](Cc1ccccc1)NC(=O)OCC(C)(C)C [Compound 139, [1S-(1R*,2S*)]-[Iminobis[2-hydroxy-1-(phenylmethyl)-3,1-propanediyl]]biscarbamic acid, bis(2,2-dimethylpropyl)ester] | 73
22 | CC(C)(C)OC(=O)N[C@@H](Cc1ccccc1)[C@H](O)CNC[C@@H](O)[C@H](Cc1ccccc1)NC(=O)OC(C)(C)CN [Compound 216, [1S-(1R*,2S*)]-[Iminobis[2-hydroxy-1-(phenylmethyl)-3,1-propanediyl]]biscarbamic acid. 2-amino-1,1-dimethylethyl-1,1-dimethylethyl ester] | 49
